Test results published in patent publication US20070027064A1, “Pharmaceutical compositions for inhibiting metal ion dependent enzymatic activity and methods for the use thereof” (priority 2003, published 2007).

Experiments:
[1] = tested on: inducible nitric oxide synthetase (iNOS); design: inducible nitric oxide synthetase (iNOS): dose or concentration left out as unconfirmed; details: murine macrophages, cited from earlier work
[2] = tested on: inducible nitric oxide synthetase; details: rat mesangial cells; cited from earlier work
tumor cells = details: 0.0001-0.1 μM TPEN, filters coated with collagen IV
Protocol: Chemotaxis evaluation was performed in a similar way to basement membrane invasion, with the exception that the filters were coated with […] collagen IV instead of Matrigel.

[3] = cited from earlier work
cancer cells = details: examined over 0.1-10 μM, FIG. 1
From the text: It is recognized that the induction of MMPs is a key event in angiogenesis and metastatic tumor cell invasiveness.

MMP-2 = MMP-2 (Homo sapiens, UniProt P08253)
Sequence of MMP-2 (P08253 110-660): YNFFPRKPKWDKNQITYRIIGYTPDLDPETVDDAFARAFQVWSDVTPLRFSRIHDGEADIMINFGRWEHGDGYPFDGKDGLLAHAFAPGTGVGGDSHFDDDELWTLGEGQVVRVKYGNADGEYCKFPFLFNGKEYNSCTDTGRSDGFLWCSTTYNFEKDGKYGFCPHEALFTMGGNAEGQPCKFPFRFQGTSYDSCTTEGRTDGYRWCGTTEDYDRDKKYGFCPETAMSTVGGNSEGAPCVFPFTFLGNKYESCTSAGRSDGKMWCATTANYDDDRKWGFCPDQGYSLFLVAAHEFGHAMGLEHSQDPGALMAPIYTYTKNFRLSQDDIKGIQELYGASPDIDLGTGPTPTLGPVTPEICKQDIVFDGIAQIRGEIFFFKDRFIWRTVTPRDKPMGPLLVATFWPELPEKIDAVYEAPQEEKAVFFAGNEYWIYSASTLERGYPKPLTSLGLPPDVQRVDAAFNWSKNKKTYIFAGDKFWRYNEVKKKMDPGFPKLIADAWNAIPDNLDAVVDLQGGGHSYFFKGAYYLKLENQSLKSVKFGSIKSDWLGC
Protocol: (§1) Sub-confluent cell cultures were incubated for 6-24 h in serum-free DMEM and the resulted supernatant were analyzed for collagenolytic activity. The collagenolytic activity was determined on a gelatin impregnated (1 mg/ml, Difco, Detroit, Mich.), SDS-PAGE 8% gel, with minor modifications. […] The gels were then incubated for 16 hours at 37° C. in 50 mM Tris, 0.2M NaCl, 5 mM CaCl2, 0.02% Brij 35 (w/v) at pH 7.6. At the end of the incubation period, the gels were stained with 0.5% Coomassie G 250 (Bio-Rad Richmond Calif.) in methanol/acetic acid/H2O (30:10:60). The intensity of the various bands was determined on a computerized densitometer (Molecular Dynamics type 300A).

MMP-9 = MMP-9 (Homo sapiens, UniProt P14780)
Sequence of MMP-9 (P14780 94-707): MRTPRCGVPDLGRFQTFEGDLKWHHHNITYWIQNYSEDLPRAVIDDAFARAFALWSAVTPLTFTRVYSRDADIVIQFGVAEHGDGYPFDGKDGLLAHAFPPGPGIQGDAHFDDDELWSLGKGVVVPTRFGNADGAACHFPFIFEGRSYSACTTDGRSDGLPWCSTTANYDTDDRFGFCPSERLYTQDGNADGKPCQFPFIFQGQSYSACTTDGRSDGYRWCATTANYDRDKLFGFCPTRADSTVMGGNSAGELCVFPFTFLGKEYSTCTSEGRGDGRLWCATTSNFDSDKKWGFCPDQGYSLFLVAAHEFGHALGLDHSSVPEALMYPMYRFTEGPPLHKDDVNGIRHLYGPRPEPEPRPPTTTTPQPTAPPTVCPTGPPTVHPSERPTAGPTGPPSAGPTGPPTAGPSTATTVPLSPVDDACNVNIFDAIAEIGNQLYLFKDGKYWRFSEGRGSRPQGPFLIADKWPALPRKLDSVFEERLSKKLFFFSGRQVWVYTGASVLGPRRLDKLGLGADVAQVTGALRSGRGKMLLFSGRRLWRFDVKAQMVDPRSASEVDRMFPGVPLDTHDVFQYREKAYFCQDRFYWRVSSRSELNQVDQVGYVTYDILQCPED
Protocol: as §1

[4] = 6 hours of incubation, HT1080, TPEN 0.001-0.1 micromolar, FIG. 4A
[5] = 24 hours of incubation, HT1080, FIG. 4B

Structure (SMILES)	nitric oxide production ([1]; COL-3 between 2.5 and 10 µg/mL, concentration-dependent)	inducible nitric oxide synthetase (iNOS) ([1]; COL-3 between 2.5 and 10, concentration-dependent)	inducible nitric oxide synthetase protein expression [2]	nitric oxide production [2]	chemotactic activity of the cells (tumor cells)	Ion affinity ([3]; rank order of metal ions)	metal binding ([3]; under physiological blood concentration)	concentration above which TPEN has a toxic effect (cancer cells)	MMP-2 activity, % from the control (MMP-2; [4]) [%]	inhibition of MMP-2 activity after 24 hours (MMP-2; [5])	MMP-9 activity, % from the control (MMP-9; [4]) [%]	inhibition of MMP-9 activity after 24 hours (MMP-9; [5])
NC(=O)C1=C(O)C[C@@H]2C[C@@H]3Cc4cccc(O)c4C(=O)C3=C(O)[C@]2(O)C1=O [COL-3, 6-demethyl-6-deoxy-4-dedimethylaminotetracycline]	inhibited	inhibited	decrease	decrease	–	–	–	–	–	–	–	–
c1ccc(CN(CCN(Cc2ccccn2)Cc2ccccn2)Cc2ccccn2)nc1 [TPEN, NNN′N′-Tetrakis-(2-pyridyl-methyl)-ethylenediamine]	–	–	–	–	not affected	Zn^2+ > Fe^2+ > Mn^2+ >> Ca^2+ > Mg^2+	binds zinc, iron, and copper but does not bind magnesium and calcium	above 0.1 μM	32	disappeared	64	disappeared
